Here are results for 17 compounds from patent US20200289514A1, “Novel Pyrazolo Pyrimidine Derivatives” (Novartis AG, priority 2015, published 2020).

pIC50: −log10 of the molar value. Converted amounts (≈) assume the structure as drawn. Where two headings read alike, the source gives them in different places. A value given as a limit tells only on which side of the number the result lay.

For data set [1], the target named is T1, C-domain of MALT1 (amino acids 329-824) (Homo sapiens, UniProt Q9UDY8).
T1 sequence (Q9UDY8 329-824): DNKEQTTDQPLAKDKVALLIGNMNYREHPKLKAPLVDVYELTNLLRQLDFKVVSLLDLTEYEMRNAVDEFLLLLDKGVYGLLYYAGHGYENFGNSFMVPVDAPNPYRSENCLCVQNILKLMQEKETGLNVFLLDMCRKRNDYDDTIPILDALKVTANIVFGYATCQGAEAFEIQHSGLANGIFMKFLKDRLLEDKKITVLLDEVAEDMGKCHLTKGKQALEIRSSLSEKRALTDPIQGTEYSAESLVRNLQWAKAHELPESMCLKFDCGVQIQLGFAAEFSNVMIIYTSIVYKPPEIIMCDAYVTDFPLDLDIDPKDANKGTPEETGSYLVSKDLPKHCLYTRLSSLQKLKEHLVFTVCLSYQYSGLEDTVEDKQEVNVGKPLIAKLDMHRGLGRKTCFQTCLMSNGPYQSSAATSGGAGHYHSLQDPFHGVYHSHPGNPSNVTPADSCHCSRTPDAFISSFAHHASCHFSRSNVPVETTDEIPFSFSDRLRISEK
Kind of data set: MALT1 Biochemical Assay - Version 1 (fluorescence lifetime).
Protocol: The readout parameter is the increase of fluorescence lifetime over time, proportional to enzyme activity.
The assay employs a short peptide substrate labeled with the single fluorophore PT14 as a fluorescence lifetime probe sensitive to the cleavage state of the substrate (PT14: 6-(9-oxo-9H-acridin-10-yl)-hexanoate, AssayMetrics, UK). […] Test compounds were dissolved in 100% (v/v) DMSO or a mixture containing 90% (v/v) DMSO and 10% (v/v) H2O at a stock concentration of 100 mM. Serial dilutions of test compounds were prepared using either 100% (v/v) DMSO or a mixture containing 90% (v/v) DMSO and 10% (v/v) H2O.
where y is the %-inhibition at the inhibitor concentration, x. A1 is the lowest inhibition value, and A2 the maximum inhibition value. The exponent, p, is the Hill coefficient.

Data set [2] relates to Human IL2 promoter. The data set is described as follows: Human IL2 promoter reporter gene assay (RGA) in Jurkat cells. The format is cell-based. Conditions: Jurkat clone K22 290_H23, anti-CD28 mAb + PMA, 5.5 h. As for the experimental part: Human IL2 Promoter Reporter Gene Assay (RGA) in Jurkat Cells
The transfected Jurkat clone K22 290_H23 was propagated in RPMI 1640 supplemented with 10% heat inactivated fetal calf serum, 50 μM 2-mercaptoethanol and 1 mg/ml Geneticin. The cell concentration should not exceed 1×10e6/ml during culturing. The cells should not exceed passage 30. Prior to the assay the cells were washed and prepared to the concentration of 2×10e6 cells/ml.
Compound dilutions were made as 2×-concentrated solutions then diluted ½ by addition to cells. Two hundred and fifty μl of compound dilution and 250 μl of cells were mixed together in wells of a 96-deep well plate. Cells/compounds premix were incubated 30 min at 37° C. and 5% CO2 directly in the deep well plate.
After pre-incubation of cells with compounds, cells were stimulated with anti-CD28 mAb (clone 15E8) at 3 μg/ml+PMA at 1 μg/ml. Both co-stimulants were diluted in culture medium at a 10×-concentrated solution. 10 μl of co-stimulants were pipetted into the white 96-well plates and 100 μl of cell/compound mix was immediately added in duplicates. The cells were stimulated for 5.5 h at 37° C. and 5% CO2.
After cell stimulation, 50 μl of BriteLitePlus reagent (Perkin Elmer) was added to each well and the bioluminescence was measured with a Wallac EnVision reader (Perkin Elmer).

Data set [3] is described as follows: Solubility in aqueous and biorelevant media. Format: physicochemical.

As to `CO[C@@H](C)c1c(NC(=O)Nc2ccnc(C(F)F)c2)cnc2cc(F)nn12` [Example 2, (S)-1-(2-(difluoromethyl)pyridin-4-yl)-3-(2-fluoro-7-(1-methoxyethyl)pyrazolo[1,5-a]pyrimidin-6-yl)urea], the pIC50 in data set [1] was 7.74; in data set [2], 7.33. Further, the solubility was 0.041 mg/mL (≈ 108 µM) in data set [3] (Free form, Fasted state simulated intestinal fluid FaSSIF (V2) pH 6.5, [pH] 6.64, read-out: Solubility mg/mL [pH] Free form); 0.093 mg/mL (≈ 245 µM) in data set [3] (Free form, Fed state intestinal fluid FeSSIF (V2) pH 5.8, [pH] 5.85, read-out: Solubility mg/mL [pH] Free form); 0.338 mg/mL (≈ 889 µM) in data set [3] (Free form, Simulated Gastric Fluid (SGF) pH 2.0, [pH] 1.99, read-out: Solubility mg/mL [pH] Free form); 0.029 mg/mL (≈ 76.2 µM) in data set [3] (Free form, Water, [pH] 7.76, read-out: Solubility mg/mL [pH] Free form); 0.026 mg/mL (≈ 68.4 µM) in data set [3] (aqueous buffer, Free form, 19.12 mM Sodium Maleate (blank FaSSIF) pH 6.5, [pH] 6.61, read-out: Solubility mg/mL [pH] Free form); 0.032 mg/mL (≈ 84.1 µM) in data set [3] (aqueous buffer, Free form, 100 mM Sodium Acetate pH 4.0, [pH] 3.99, read-out: Solubility mg/mL [pH] Free form). Further, the solubility in data set [3] (simulated gastric fluid, Free form, HCl/KCl pH 1.0, [pH] 1.12, read-out: Solubility mg/mL [pH] Free form) is greater than 2 mg/mL.
Regarding `CO[C@@H](C)c1c(NC(=O)Nc2cnc(-n3nccn3)c(Cl)c2)cnc2cc(Cl)nn12` [Example 5, (S)-1-(5-chloro-6-(2H-1,2,3-triazol-2-yl)pyridin-3-yl)-3-(2-chloro-7-(1-methoxyethyl)pyrazolo[1,5-a]pyrimidin-6-yl)urea], in data set [2], the pIC50 was 7.72. The solubility in data set [3] (Fasted state simulated intestinal fluid (FaSSIF), [pH] 6.59, read-out: Solubility (mg/mL) [pH]) was 0.0044 mg/mL (≈ 9.82 µM); in data set [3] (Fed state intestinal fluid (FeSSIF), [pH] 6.87, read-out: Solubility (mg/mL) [pH]) it was 0.0082 mg/mL (≈ 18.3 µM); in data set [3] (Simulated Gastric Fluid (SGF), [pH] 2.55, read-out: Solubility (mg/mL) [pH]) it was 0.0168 mg/mL (≈ 37.5 µM); in data set [3] (Water, [pH] 7.39, read-out: Solubility (mg/mL) [pH]) it was 0.005 mg/mL (≈ 11.2 µM); in data set [3] (medium of pH 1.2 (composition not named), simulated gastric fluid, pH 1.2, [pH] 1.17, read-out: Solubility (mg/mL) [pH]), 0.0038 mg/mL (≈ 8.48 µM); in data set [3] (medium of pH 3.0 (composition not named), aqueous buffer, pH 3.0, [pH] 3.14, read-out: Solubility (mg/mL) [pH]) it was 0.0052 mg/mL (≈ 11.6 µM). Moreover, the solubility amounted to 0.0048 mg/mL (≈ 10.7 µM) in data set [3] (medium of pH 4.7 (composition not named), aqueous buffer, pH 4.7, [pH] 4.71, read-out: Solubility (mg/mL) [pH]); 0.004 mg/mL (≈ 8.92 µM) in data set [3] (medium of pH 7.4 (composition not named), aqueous buffer, pH 7.4, [pH] 7.34, read-out: Solubility (mg/mL) [pH]); 0.0055 mg/mL (≈ 12.3 µM) in data set [3] (medium of pH 9.0 (composition not named), aqueous buffer, pH 9.0, [pH] 8.09, read-out: Solubility (mg/mL) [pH]).
For `COc1ncc(NC(=O)Nc2cnc3cc(F)nn3c2[C@H](C)OC)cc1C#N` [Example 6, (S)-1-(5-cyano-6-methoxypyridin-3-yl)-3-(2-fluoro-7-(1-methoxyethyl)pyrazolo[1,5-a]pyrimidin-6-yl)urea], the pIC50 was 8.40 in data set [1] and 7.39 in data set [2].
The corresponding values for `CO[C@@H](C)[C@H](OC)c1c(NC(=O)Nc2cnc(-n3nccn3)c(C#N)c2)cnc2cc(Cl)nn12` [Example 25, 1-(2-chloro-7-((1R, 2S)-1,2-dimethoxypropyl)pyrazolo[1,5-a]pyrimidin-6-yl)-3-(5-cyano-6-(2H-1,2,3-triazol-2-yl)pyridin-3-yl)urea] are 8.40 and 7.68.
Take `CO[C@@H](C)c1c(NC(=O)Nc2cnc(C(=O)N(C)C)c(Cl)c2)cnc2cc(Cl)nn12` [Example 31, (S)-3-chloro-5-(3-(2-chloro-7-(1-methoxyethyl)pyrazolo [1,5-a]pyrimidin-6-yl)ureido)-N,N-dimethylpicolinamide]: the values for the pIC50 in data set [1] and in data set [2] were 7.92 and 7.46, respectively.
The corresponding values for `CO[C@@H](C)c1c(NC(=O)Nc2cc[n+]([O-])c(C(F)F)c2)cnc2cc(F)nn12` [Example 42, (S)-2-(difluoromethyl)-4-(3-(2-fluoro-7-(1-methoxyethyl)pyrazolo[1,5-a]pyrimidin-6-yl)ureido)pyridine 1-oxide] are 7.02 and 6.14.
In the same order, the values of `COc1ncc(NC(=O)Nc2cnc3cc(C)nn3c2[C@@H](OC)C(C)C)cc1C#N` [Example 22, (S)-1-(5-cyano-6-methoxypyridin-3-yl)-3-(7-(1-methoxy-2-methylpropyl)-2-methylpyrazolo[1,5-a]pyrimidin-6-yl)urea] are 8.15 and 7.60.
Turning to `CO[C@H](c1c(NC(=O)Nc2cnc(-n3nccn3)c(C#N)c2)cnc2cc(C)nn12)C(C)C` [Example 15, (S)-1-(5-cyano-6-(2H-1,2,3-triazol-2-yl)pyridin-3-yl)-3-(7-(1-methoxy-2-methylpropyl)-2-methylpyrazolo[1,5-a]pyrimidin-6-yl)urea], the pIC50 is 8.05 in data set [1] and 7.92 in data set [2].
In the same order, the values of `COc1ncc(NC(=O)Nc2cnc3cc(C)nn3c2[C@H](C)OC)cc1C#N` [Example 24, (S)-1-(5-cyano-6-methoxypyridin-3-yl)-3-(7-(1-methoxyethyl)-2-methylpyrazolo[1,5-a]pyrimidin-6-yl)urea] are 7.85 and 7.21.
In the same order, the values of `CO[C@@H](C)c1c(NC(=O)Nc2cc(Cl)nc(C(=O)N(C)C)c2)cnc2cc(Cl)nn12` [Example 28, (S)-6-chloro-4-(3-(2-chloro-7-(1-methoxyethyl)pyrazolo [1,5-a]pyrimidin-6-yl)ureido)-N, N-dimethylpicolinamide] are 7.89 and 7.35.
Turning to `CO[C@@H](C)c1c(NC(=O)Nc2cnc(C(=O)N3CCCC3)c(Cl)c2)cnc2cc(Cl)nn12` [Example 33, (S)-1-(5-chloro-6-(pyrrolidine-1-carbonyl)pyridin-3-yl)-3-(2-chloro-7-(1-methoxyethyl)pyrazolo [1,5-a]pyrimidin-6-yl)urea], the pIC50 is 7.96 in data set [1] and 7.36 in data set [2].
In the same order, the values of `CO[C@@H](C)c1c(NC(=O)Nc2cnc(-n3nccn3)c(C#N)c2)cnc2cc(C)nn12` [Example 27, (S)-1-(5-cyano-6-(2H-1,2,3-triazol-2-yl)pyridin-3-yl)-3-(7-(1-methoxyethyl)-2-methylpyrazolo[1,5-a]pyrimidin-6-yl)urea] are 8.10 and 7.46.
In the same order, the values of `CNC(=O)c1ncc(NC(=O)Nc2cnc3cc(Cl)nn3c2[C@H](C)OC)cc1Cl` [Example 34, (S)-3-chloro-5-(3-(2-chloro-7-(1-methoxyethyl)pyrazolo [1,5-a]pyrimidin-6-yl)ureido)-N-methylpicolinamide] are 8.15 and 7.55.
On to `CO[C@@H](C)c1c(NC(=O)Nc2cncc(C(F)F)c2)cnc2cc(F)nn12` [Example 29, (S)-1-(5-(difluoro-methyl)pyridin-3-yl)-3-(2-fluoro-7-(1-methoxyethyl)-pyrazolo[1,5-a]pyrimidin-6-yl)urea], for which the negative-log IC50 (pIC50) in data set [1] was 7.30; in data set [2], 6.87.
On to `C[C@H](O)c1c(NC(=O)Nc2ccnc(C(F)F)c2)cnc2cc(F)nn12` [Example 40, (S)-1-(2-(difluoromethyl)pyridin-4-yl)-3-(2-fluoro-7-(1-hydroxyethyl)pvrazolo[1,5-a]pyrimidin-6-yl)urea], for which the pIC50 was 7.96 in data set [1] and 7.00 in data set [2].
In the same order, the values of `CO[C@@H](C)c1c(NC(=O)Nc2cncc(C(F)(F)F)c2)cnc2cc(F)nn12` [Example 30, (S)-1-(2-fluoro-7-(1-methoxyethyl)pyrazolo [1,5-a]pyrimidin-6-yl)-3-(5-(trifluoro-methyl)pyridin-3-yl)urea] are 8.15 and 7.70.
The corresponding values for `Cc1cc2ncc(NC(=O)Nc3cncc(C#N)c3)c([C@H](C)O)n2n1` [Example 39, (S)-1-(5-cyanopyridin-3-yl)-3-(7-(1-hydroxyethyl)-2-methylpyrazolo [1,5-a]pyrimidin-6-yl)urea] are 7.14 and 6.22.
